The text below walks through data of ChEMBL document CHEMBL1152560, “Substituted 2-arylbenzothiazoles as kinase inhibitors: hit-to-lead optimization” (Bioorg Med Chem, 2009).

Experiment [1] addresses T1, Serine/threonine-protein kinase DCLK2 (Homo sapiens) (UniProt Q8N568).
T1 sequence (whole entry): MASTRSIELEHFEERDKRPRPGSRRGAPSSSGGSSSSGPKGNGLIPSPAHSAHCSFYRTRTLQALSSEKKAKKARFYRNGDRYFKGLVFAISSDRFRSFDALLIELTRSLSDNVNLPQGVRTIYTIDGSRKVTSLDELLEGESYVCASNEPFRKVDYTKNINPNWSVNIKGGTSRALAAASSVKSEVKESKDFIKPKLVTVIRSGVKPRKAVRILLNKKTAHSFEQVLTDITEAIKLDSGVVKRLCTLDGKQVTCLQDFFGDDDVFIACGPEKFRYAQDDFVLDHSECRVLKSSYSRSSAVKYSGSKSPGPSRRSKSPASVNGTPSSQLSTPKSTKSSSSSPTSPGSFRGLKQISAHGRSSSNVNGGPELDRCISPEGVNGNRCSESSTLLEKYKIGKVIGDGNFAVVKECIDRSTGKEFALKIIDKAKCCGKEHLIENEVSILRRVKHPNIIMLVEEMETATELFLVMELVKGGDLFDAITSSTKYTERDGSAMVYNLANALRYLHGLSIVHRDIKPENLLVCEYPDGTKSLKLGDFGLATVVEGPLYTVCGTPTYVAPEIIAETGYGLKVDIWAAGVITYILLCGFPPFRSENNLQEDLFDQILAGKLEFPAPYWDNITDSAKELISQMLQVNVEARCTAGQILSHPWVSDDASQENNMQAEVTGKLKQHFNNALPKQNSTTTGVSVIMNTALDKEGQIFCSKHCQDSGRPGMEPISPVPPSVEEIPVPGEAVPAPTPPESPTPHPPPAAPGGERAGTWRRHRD
In words: Residual activity of DCAMKL2 at 0.1 uM by microplate scintillation counting.

For experiment [2], the target named is T2, Serine/threonine-protein kinase Sgk3 (Homo sapiens) (UniProt Q96BR1).
T2 sequence (whole entry): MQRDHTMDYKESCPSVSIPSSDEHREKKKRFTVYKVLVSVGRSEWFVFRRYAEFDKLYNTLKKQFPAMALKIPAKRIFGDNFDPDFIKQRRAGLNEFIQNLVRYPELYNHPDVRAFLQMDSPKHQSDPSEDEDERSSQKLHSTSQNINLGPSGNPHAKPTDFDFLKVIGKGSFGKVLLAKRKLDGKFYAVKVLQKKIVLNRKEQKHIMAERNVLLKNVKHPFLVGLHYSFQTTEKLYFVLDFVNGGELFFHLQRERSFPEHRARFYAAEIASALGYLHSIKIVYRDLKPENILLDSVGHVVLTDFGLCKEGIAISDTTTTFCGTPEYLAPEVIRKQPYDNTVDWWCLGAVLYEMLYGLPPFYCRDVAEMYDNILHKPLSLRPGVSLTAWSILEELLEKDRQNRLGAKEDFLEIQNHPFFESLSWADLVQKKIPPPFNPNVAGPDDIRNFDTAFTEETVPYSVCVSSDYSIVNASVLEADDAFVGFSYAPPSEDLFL
In words: Residual activity of SGK3 at 1 uM by microplate scintillation counting.

The target in experiment [3] is SRSF protein kinase 3 (Homo sapiens) (UniProt Q9UPE1). In words: Residual activity of STK23 at 1 uM by microplate scintillation counting.
Experiment [4] deals with Cyclin-dependent kinase 16 (Homo sapiens) (UniProt Q00536). In words: Residual activity of PCTAIRE1 at 10 uM by microplate scintillation counting.
Experiment [5] addresses Protein kinase C alpha type (Homo sapiens) (UniProt P17252). The experiment in a line: Residual activity of PKCalpha at 10 uM by microplate scintillation counting.
Experiment [6] deals with Calcium/calmodulin-dependent protein kinase kinase 2 (Homo sapiens) (UniProt Q96RR4). In words: Residual activity of CAMKK2 at 1 uM by microplate scintillation counting.
Experiment [7] has as its target Protein kinase C beta type (Homo sapiens) (UniProt P05771). The experiment in a line: Residual activity of PKCbeta2 at 0.1 uM by microplate scintillation counting.
Experiment [8] deals with T3, Serine/threonine-protein kinase TAO2 (Homo sapiens) (UniProt Q9UL54).
T3 sequence (whole entry): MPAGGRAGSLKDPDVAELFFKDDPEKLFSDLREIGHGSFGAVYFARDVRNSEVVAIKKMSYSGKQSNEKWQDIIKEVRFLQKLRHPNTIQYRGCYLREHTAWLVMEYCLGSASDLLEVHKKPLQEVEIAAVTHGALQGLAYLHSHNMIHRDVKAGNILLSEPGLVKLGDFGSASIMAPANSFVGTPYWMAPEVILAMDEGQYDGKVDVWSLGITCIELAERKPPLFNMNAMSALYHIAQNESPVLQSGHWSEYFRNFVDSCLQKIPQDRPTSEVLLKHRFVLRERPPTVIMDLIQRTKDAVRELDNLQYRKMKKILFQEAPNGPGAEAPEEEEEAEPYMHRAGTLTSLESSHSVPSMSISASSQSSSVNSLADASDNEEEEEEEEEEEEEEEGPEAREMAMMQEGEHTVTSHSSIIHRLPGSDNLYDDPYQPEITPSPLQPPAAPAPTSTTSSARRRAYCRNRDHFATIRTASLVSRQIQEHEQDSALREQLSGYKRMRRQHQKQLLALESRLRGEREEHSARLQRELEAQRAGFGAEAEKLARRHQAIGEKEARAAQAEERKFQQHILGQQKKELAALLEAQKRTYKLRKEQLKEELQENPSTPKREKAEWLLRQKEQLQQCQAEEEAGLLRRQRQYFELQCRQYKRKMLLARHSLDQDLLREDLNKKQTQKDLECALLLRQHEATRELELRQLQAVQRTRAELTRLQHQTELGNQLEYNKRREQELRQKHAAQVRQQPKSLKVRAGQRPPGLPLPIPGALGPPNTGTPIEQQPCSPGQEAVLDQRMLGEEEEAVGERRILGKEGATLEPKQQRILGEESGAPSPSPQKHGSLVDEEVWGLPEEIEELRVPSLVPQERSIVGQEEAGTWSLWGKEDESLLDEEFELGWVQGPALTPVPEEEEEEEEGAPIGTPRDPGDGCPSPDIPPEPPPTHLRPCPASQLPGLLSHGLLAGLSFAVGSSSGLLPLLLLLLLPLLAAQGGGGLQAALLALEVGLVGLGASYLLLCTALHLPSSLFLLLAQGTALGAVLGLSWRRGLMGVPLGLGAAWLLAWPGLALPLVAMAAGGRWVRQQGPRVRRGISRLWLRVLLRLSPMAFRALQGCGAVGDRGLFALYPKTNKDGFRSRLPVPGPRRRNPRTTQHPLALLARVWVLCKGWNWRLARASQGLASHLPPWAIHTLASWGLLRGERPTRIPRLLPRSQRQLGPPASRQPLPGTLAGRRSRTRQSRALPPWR
The experiment in a line: Residual activity of TAOK2 at 0.1 uM by microplate scintillation counting.

For experiment [9], the target named is NT-3 growth factor receptor (Homo sapiens) (UniProt Q16288). In words: Residual activity of TRK-C at 0.1 uM by microplate scintillation counting.
Experiment [10] deals with Vascular endothelial growth factor receptor 1 (Homo sapiens) (UniProt P17948). The experiment in a line: Residual activity of VEGFR1 at 10 uM by microplate scintillation counting.
Chain of Vascular endothelial growth factor receptor 1 (Homo sapiens) (P17948 whole entry): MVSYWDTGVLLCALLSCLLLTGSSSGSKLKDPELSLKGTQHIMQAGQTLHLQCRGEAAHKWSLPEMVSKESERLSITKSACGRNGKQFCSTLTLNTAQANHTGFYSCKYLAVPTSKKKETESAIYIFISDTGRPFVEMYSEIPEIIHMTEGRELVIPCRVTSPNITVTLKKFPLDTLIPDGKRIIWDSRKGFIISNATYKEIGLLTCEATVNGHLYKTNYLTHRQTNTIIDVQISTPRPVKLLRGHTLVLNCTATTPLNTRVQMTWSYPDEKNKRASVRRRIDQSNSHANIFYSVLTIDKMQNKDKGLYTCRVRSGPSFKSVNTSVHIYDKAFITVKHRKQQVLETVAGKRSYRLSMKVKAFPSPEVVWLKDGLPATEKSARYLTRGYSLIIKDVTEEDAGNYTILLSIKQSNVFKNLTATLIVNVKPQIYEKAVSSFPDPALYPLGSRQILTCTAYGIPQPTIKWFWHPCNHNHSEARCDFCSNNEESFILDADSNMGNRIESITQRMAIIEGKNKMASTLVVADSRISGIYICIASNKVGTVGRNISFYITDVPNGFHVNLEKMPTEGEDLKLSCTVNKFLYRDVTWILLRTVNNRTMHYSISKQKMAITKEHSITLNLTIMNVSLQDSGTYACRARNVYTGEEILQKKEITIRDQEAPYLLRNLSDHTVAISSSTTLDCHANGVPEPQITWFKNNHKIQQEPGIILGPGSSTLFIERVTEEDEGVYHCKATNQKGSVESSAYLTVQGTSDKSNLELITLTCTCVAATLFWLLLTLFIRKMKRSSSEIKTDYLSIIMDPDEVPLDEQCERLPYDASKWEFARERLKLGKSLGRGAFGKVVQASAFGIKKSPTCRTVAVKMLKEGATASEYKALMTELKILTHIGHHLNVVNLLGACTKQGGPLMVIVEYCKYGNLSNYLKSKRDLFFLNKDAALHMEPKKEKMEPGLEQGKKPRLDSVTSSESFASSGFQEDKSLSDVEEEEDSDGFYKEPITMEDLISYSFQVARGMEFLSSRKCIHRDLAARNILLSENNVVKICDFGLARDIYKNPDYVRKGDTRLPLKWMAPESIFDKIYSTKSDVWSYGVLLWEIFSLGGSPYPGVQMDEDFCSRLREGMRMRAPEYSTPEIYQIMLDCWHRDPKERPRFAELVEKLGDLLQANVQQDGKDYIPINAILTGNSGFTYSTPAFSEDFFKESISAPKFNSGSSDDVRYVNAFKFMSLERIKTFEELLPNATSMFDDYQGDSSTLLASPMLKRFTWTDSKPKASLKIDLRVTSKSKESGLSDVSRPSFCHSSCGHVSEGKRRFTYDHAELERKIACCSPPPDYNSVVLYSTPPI

Chain of NT-3 growth factor receptor (Homo sapiens) (Q16288 32-839 limits assumed): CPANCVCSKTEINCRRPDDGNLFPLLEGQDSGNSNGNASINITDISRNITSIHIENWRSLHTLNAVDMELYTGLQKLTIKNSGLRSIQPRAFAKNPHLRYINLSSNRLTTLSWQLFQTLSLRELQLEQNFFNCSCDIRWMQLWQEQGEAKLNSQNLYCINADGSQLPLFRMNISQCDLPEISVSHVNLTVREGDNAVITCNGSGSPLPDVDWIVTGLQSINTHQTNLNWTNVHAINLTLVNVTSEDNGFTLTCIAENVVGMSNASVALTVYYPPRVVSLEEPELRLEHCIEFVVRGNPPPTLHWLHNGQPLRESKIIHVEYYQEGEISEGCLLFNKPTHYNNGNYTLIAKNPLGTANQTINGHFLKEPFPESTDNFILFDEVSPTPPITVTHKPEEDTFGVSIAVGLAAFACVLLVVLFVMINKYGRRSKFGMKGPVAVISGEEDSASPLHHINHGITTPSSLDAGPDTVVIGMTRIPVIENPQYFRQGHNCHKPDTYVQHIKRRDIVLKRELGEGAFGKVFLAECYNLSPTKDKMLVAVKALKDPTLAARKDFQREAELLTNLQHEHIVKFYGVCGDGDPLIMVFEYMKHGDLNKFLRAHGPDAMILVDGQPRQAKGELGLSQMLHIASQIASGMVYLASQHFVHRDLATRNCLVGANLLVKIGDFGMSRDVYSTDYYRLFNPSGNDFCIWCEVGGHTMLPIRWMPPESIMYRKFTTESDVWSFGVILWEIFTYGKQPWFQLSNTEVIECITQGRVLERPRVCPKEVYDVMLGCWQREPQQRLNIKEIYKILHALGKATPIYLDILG
Chain of Calcium/calmodulin-dependent protein kinase kinase 2 (Homo sapiens) (Q96RR4 2-588 limits assumed): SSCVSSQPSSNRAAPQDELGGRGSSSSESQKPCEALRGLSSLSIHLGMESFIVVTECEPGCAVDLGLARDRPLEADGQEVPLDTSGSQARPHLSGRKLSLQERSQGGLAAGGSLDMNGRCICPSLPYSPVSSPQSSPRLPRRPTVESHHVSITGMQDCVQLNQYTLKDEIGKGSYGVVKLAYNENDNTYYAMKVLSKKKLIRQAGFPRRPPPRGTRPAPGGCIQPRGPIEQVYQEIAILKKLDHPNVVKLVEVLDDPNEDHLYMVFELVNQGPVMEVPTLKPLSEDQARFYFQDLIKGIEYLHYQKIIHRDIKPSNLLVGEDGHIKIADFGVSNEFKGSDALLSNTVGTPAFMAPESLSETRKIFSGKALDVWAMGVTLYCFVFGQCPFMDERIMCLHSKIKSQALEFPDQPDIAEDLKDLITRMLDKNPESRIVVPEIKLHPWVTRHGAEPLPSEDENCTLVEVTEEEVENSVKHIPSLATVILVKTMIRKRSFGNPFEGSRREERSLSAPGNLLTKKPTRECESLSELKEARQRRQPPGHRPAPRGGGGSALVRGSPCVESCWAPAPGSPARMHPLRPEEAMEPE
Chain of SRSF protein kinase 3 (Homo sapiens) (Q9UPE1 whole entry): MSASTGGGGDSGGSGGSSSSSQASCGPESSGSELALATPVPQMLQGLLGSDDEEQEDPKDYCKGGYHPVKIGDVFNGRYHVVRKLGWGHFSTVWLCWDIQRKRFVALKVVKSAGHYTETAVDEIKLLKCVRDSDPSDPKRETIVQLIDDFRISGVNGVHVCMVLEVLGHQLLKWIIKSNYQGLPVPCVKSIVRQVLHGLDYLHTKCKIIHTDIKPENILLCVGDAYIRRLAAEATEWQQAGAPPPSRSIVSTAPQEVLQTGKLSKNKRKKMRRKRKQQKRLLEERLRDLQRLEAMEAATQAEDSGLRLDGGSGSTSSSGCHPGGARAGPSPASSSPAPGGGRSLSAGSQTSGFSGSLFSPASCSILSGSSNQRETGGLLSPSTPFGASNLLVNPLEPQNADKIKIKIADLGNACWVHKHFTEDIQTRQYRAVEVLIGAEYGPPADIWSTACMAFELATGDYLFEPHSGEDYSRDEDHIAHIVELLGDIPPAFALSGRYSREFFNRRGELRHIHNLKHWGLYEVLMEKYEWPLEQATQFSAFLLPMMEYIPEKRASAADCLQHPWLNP
Chain of Protein kinase C beta type (Homo sapiens) (P05771 2-671 limits assumed): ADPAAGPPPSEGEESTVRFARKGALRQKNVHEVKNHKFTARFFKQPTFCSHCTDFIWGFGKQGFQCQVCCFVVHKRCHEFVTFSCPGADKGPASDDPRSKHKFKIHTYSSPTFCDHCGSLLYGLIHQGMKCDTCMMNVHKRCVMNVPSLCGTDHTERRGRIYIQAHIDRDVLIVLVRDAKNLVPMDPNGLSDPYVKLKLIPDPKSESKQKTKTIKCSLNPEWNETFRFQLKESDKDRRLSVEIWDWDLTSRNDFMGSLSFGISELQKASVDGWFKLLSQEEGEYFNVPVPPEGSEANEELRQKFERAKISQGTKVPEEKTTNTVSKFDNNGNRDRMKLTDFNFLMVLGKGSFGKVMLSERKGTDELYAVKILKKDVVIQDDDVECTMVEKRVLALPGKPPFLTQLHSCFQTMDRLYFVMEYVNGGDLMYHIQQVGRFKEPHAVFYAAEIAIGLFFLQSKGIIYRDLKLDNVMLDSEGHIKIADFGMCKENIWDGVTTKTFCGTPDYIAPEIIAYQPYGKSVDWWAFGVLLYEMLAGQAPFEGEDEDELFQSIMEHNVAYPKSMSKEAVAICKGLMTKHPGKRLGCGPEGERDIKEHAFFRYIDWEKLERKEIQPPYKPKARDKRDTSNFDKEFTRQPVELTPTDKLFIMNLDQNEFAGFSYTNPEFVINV
Chain of Cyclin-dependent kinase 16 (Homo sapiens) (Q00536 whole entry): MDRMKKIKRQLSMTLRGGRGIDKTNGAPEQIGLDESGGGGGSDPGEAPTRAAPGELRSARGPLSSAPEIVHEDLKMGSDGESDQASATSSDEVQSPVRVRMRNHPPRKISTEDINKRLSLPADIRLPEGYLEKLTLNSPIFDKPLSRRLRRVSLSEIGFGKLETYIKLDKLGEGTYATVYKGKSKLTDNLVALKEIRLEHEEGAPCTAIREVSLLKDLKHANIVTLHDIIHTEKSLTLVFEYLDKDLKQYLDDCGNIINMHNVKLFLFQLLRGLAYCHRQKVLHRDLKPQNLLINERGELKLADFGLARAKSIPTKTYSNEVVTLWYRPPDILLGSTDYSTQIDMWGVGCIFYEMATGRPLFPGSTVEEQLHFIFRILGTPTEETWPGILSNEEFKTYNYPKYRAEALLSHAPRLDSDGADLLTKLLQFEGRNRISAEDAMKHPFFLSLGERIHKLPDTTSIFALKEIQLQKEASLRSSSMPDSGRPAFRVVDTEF

One may read the residual activity as the signal under treatment as a percentage of the control signal. For the compound `COc1cc2c(Oc3ccc(-c4nc5ccccc5s4)cc3)ncnc2cc1OCCCN1CCCC1`, the residual activity in experiment [1] is 87%; in [2], 110%; in experiment [3], 83%; in [4] it was 126%; in experiment [5] it was 61%; in [6] it was 85%. Also, the residual activity in experiment [7] was 99%; in experiment [8], 102%; in experiment [9], 109%; in experiment [10], 28%.

Regarding `COc1cc2c(Oc3ccc(-c4nc5ccccc5s4)cc3F)ncnc2cc1OCCCN1CCN(C)CC1`, the residual activity in experiment [1] turned out to be 80%; in experiment [2], 94%; in experiment [3], 87%; in [4] it was 153%; in [5], 50%; in experiment [6], 90%. The residual activity in [7] came to 87%; in experiment [8] it was 108%; in [9], 110%; in experiment [10] it was 14%.

Turning to `COc1cc2c(Oc3ccc(-c4nc5ccccc5s4)cc3)ncnc2cc1OCCCN1CCN(C)CC1`, the residual activity is 66% in experiment [1]; 91% in experiment [2]; 95% in experiment [3]; 163% in experiment [4]; 80% in [5]; 91% in [6]. The residual activity in experiment [7] was 101%; in [8] it was 92%; in experiment [9], 97%; in experiment [10], 35%.
